According to US20180334540A1, “Polymeric Derivative Of Macrolide Immunosuppressant” (Nippon Kayaku Kabushiki Kaisha, priority 2015, published 2018):

Tests used:
[1] = Blood concentration profile in rats; assay type: in vivo; conditions: female, SD, whole blood, iv, tacrolimus in rat blood, 5 mg/kg once i.v. caudal vein, Examples: tacrolimus cut out from micelles
Text: Blood Concentration Profile in Rats
The results for Examples 1 to 4 and tacrolimus are presented in FIG. 3, and the results for Examples 5 to 8 and tacrolimus are presented in FIG. 4.

rats = conditions: cited from earlier work
DA rats [2] = test: Test on single-dose toxicity in rats
Text: (§1) Female DA rats (Japan SLC, Inc.) were intravenously administered through the caudal vein with tacrolimus or Example 1, each once in the dosage indicated in Table 4 and Table 5, and an observation of general symptoms was made successively.

DA rats [3] = conditions: rat, in vivo, iv, 20 mg/kg
Text: as §1

Question: For C=CC[C@@H]1/C=C(\C)C[C@H](C)C[C@H](OC)[C@H]2O[C@@](O)(C(=O)C(=O)N3CCCC[C@H]3C(=O)O[C@H](/C(C)=C/[C@@H]3CC[C@@H](O)[C@H](OC)C3)[C@H](C)[C@@H](O)CC1=O)[C@H](C)C[C@@H]2OC [Tacrolimus, tacrolimus], which AUC(0-inf) [1] is on record?
Answer: 5400 ng·h/mL

Question: What about the Cmax [1] of the same compound?
Answer: 2430 ng/mL

Question: And the MRT inf [1]?
Answer: 4.12 h

Question: And the Tmax [1]?
Answer: 4.98 min

Question: What about the half-life ([1]; read-out: T½ (converted)) of the same compound?
Answer: 7.51 h

Question: What about the “symptoms caused by intravenous administration” value (rats) of the same compound?
Answer: slight respiratory distress, a decrease in locomotor activity, a prone position, stereotyped behavior

Question: What about the “cerebral cortex pathology of dead rats” value (DA rats [2]; FIG. 7) of the same compound?
Answer: neuronal vacuolation was recognized

Question: What about the lethal dose (DA rats [2]; single i.v. dose, female DA rats) of the same compound?
Answer: lower than 20 mg/kg

Question: And the death (DA rats [2]; single i.v. dose, tacrolimus 20 and 30 mg/kg, Example 1 20-50 mg/kg in terms of tacrolimus)?
Answer: half the animals in each group died

Question: And the “general symptoms immediately after administration” value (DA rats [3])?
Answer: a prone position, sedation, and a decrease in locomotor activity
